In experiment [1] the test system is bacteria lacking endogenous Rep helicase. In words: assay of sensitivity to nalidixic acid (Rep helicase activity). Particulars: 2.5 ng/μl nalidixic acid; rep- cells with helper plasmid. It is filed as cell-based, E. coli. On the procedure: The Rep helicase activity of the T5 DNA polymerase-Rep helicase fusion was measured by its ability to alleviate growth retardation caused by nalidixic acid in a strain lacking endogenous Rep helicase (Henderson et al., PLOS ONE, 10 (5): e0128092, (2015)). Bacteria normally tolerate low levels of nalidixic acid, but bacteria lacking endogenous Rep helicase grow more slowly because nalidixic acid inhibits DNA gyrase and topoisomerase.
Assay of sensitivity to nalidixic acid was used(Henderson et al., PLOS ONE, 10 (5): e0128092, (2015)). Three cell lines were prepared, namely TADR cells modified to have intact chromosomal rep, TADR cells (rep-) and TADR cells (rep-) transformed with helper plasmid (expressing the fusion protein). A Rep gene knockout mutation was P1-transduced from Keio-collection(Baba et al., Mol Syst Biol, 2 2006.0008-2006.0008, (2006)) into the host cell for using standard technique of molecular cloning(Green, (2012)). The helper plasmid was transformed into this rep-cell and selected on LB agar plate supplemented with 50 ng/μl ampicillin. From this cell line together with other two—the host cell for, its rep-derivative, single colonies were inoculated into liquid LB culture (ampicillin was added to cultures of the first cell line). […]

Experiment [2] concerns kanR* gene on target plasmid. In words: kanR* reversion assay (frequency of kanamycin-resistant colonies). It is filed as cell-based, E. coli. On the procedure:
Three DNA elements were added to E. coli to create a targeted error-prone artificial replisome: a constitutively-expressed, chromosomal CisA gene, a target vector plasmid and a helper vector plasmid (FIG. 1A-1B and FIG. 5). The target vector contained the gene(s) of interest targeted for mutagenesis between the CisA initiation and termination sequences. To quantify the increase in mutagenesis, mutagenesis was targeted to the gene for a kanamycin resistance protein (aminoglycoside phosphotransferase (3)-IIIa). This gene, named kanR*, carried a single nucleotide substitution (A785C), which encodes an E262A amino acid substitution that inactivates the kanamycin resistance (Thompson et al., J Biol Chem, 274 (43): 30697-30706, (1999)). Mutations that reverse this substitution will restore gene function, allowing the cells to grow in the presence of kanamycin. Resistant colony-forming unit (CFU) per pl of full density culture (frequency of resistant CFU per cell plated) is used as a readout for mutagenic capacity. The helper plasmid contains a gene encoding the fusion of the error-prone T5 DNA polymerase to the Rep helicase under the control of a T7 promoter. (The host cell also contains a chromosomal gene to express the T7 RNA polymerase and a deletion of the chromosomal Rep gene to eliminate potential competition with the fusion protein.)
The DNA polymerase activity of the T5 DNA polymerase-Rep helicase fusion protein was measured by its capacity to mutate the target, kanR* and restore kanamycin resistance. The bacteria, in this Example, contained all three elements of the targeted error-prone artificial replisome: a constitutively-expressed, chromosomal CisA gene, the target plasmid carrying the kanR* gene flanked by the initiation and termination sequences, and the helper plasmid expressing the T5 DNA polymerase-Rep helicase fusion protein. These cells were picked from a transformation plate, propagated in liquid for ten generations to accumulate mutations and then plated onto kanamycin-containing media for selection.
KanR* reversion assay was used. Three transformations were carried out, all into the host cell for TADR, as shown in FIG. 2C: the helper plasmid with the wildtype T5 polymerase co-transformed with the target plasmid; the helper plasmid with the error-prone T5 polymerase mutant, with the target plasmid without the recognition and termination sequences; the helper plasmid with the error-prone T5 polymerase mutant, with the target plasmid. Transformant colonies were selected on LB agar plates supplemented with 15 ng/μl chloramphenicol and 50 ng/μl ampicillin and inoculated to a liquid LB cultures with chloramphenicol and ampicillin. After overnight growth, 50 μl culture from each sample was plated on LB plates supplemented with 30 ng/μl kanamycin. After 16 h incubation at 37° C., colonies were counted.

Another experiment deals with primed DNA substrate. Conditions: cited from earlier work.

Here are results for four molecules from patent US20250333714A1, “ARTIFICIAL DNA REPLISOME AND METHODS OF USE THEREOF” (Regents of the University of Minnesota, priority 2021, published 2025).

As for “T5 DNA polymerase-Rep helicase fusion protein: T5 DNA polymerase (D164A, E166A, A593R) linked by 81-amino acid linker to Rep helicase; SEQ ID NO:22”, the “effect on nalidixic acid inhibition of growth” value in experiment [1] is on record as “partially alleviated”. The “frequency of kanamycin-resistant colonies, fold over control whose target plasmid was without initiation sequence” value in experiment [2] (LB) was determined as 4.2 fold. In addition, the “frequency of kanamycin-resistant colonies, fold increase over control with wildtype T5 DNA polymerase” value in experiment [2] (LB, wildtype Rep, T5 D164A, E166A, A593R) amounted to 128 fold. Besides, the “increase in mutation rate from engineered 5′ UTR” value in experiment [2] (stem-loop designed into 5′ UTR of the fusion gene) is on record as “up to 150 fold”.
Regarding “fusion containing RepΔC33: fusion protein in which the 33 C-terminal amino acids of Rep helicase were deleted; SEQ ID NO:10”, in experiment [2] (LB), the “frequency of kanamycin-resistant colonies, fold over control whose target plasmid was without initiation sequence” value stood at 67 fold and the “increase in selectivity from RepΔC33 versus wildtype Rep” value is 16 fold.

B1: I308V: self-evolved variant of error-prone T5 DNA polymerase with single I308V substitution; SEQ ID NO:3 (protein)
chain: MKIAVVDKALNNTRYDKHFQLYGEEVDVFHMCNEKLSGRLLKKHITIGTPENPFDPNDYDFVILVGAEPFLYFAGKKGIGDYTGKRVEYNGYANWIASISPAQLHFKPEMKPVFDATVENIHDIINGREKIAKAGDYRPITDPDEAEEYIKMVYNMVIGPVAFASATSALYCRDGYLLGVSISHQEYQGVYIDSDCLTEVAVYYLQKILDSENHTIVFHNLKFDMHFYKYHLGLTFDKAHKERRLHDTMLQHYVLDERRGTHGLKSLAMKYTDMGDYDFELDKFKDDYCKAHKIKKEDFTYDLIPFDVMWPYAAKDTDATIRLHNFFLPKIEKNEKLCSLYYDVLMPGCVFLQRVEDRGVPISIDRLKEAQYQLTHNLNKAREKLYTYPEVKQLEQDQNEAFNPNSVKQLRVLLFDYVGLTPTGKLTDTGADSTDAEALNELATQHPIAKTLLEIRKLTKLISTYVEKILLSIDADGCIRTGFHEHMTTSGRLSSSGKLNLQQLPRDESIIKGCVVAPPGYRVIAWDLTTAEVYYAAVLSGDRNMQQVFINMRNEPDKYPDFHSNIAHMVFKLQCEPRDVKKLFPALRQAAKRITFGILYGSGPAKVAHSVNEALLEQAAKTGEPFVECTVADAKEYIETYFGQFPQLKRWIDKCHDQIKNHGFIYSHFGRKRRLHNIHSEDRGVQGEEIRSGFNAIIQSASSDSLLLGAVDADNEIISLGLEQEMKIVMLVHDSVVAIVREDLIDQYNEILIRNIQKDRGISIPGCPIGIDSDSEAGGSRDYSCGKMKKQHPSIACIDDDEYTRYVKGVLLDAEFEYKKLAAMDKEHPDHSKYKDDKFIAVCKDLDNVKRILGA
As for B1, in experiment [2] (versus ancestor error-prone T5 DNA polymerase), the “increase in mutation rate (kanamycin-resistant CFU) from self-evolution / I308V” value was determined as 3.2 fold.

B2: T7 DNA polymerase: bacteriophage T7 DNA polymerase, used in the initial failed TADR (protein, UniProt P00581 1-704, looked up)
DNA-directed DNA polymerase: MIVSDIEANALLESVTKFHCGVIYDYSTAEYVSYRPSDFGAYLDALEAEVARGGLIVFHNGHKYDVPALTKLAKLQLNREFHLPRENCIDTLVLSRLIHSNLKDTDMGLLRSGKLPGKRFGSHALEAWGYRLGEMKGEYKDDFKRMLEEQGEEYVDGMEWWNFNEEMMDYNVQDVVVTKALLEKLLSDKHYFPPEIDFTDVGYTTFWSESLEAVDIEHRAAWLLAKQERNGFPFDTKAIEELYVELAARRSELLRKLTETFGSWYQPKGGTEMFCHPRTGKPLPKYPRIKTPKVGGIFKKPKNKAQREGREPCELDTREYVAGAPYTPVEHVVFNPSSRDHIQKKLQEAGWVPTKYTDKGAPVVDDEVLEGVRVDDPEKQAAIDLIKEYLMIQKRIGQSAEGDKAWLRYVAEDGKIHGSVNPNGAVTGRATHAFPNLAQIPGVRSPYGEQCRAAFGAEHHLDGITGKPWVQAGIDASGLELRCLAHFMARFDNGEYAHEILNGDIHTKNQIAAELPTRDNAKTFIYGFLYGAGDEKIGQIVGAGKERGKELKKKFLENTPAIAALRESIQQTLVESSQWVAGEQQVKWKRRWIKGLDGRKVHVRSPHAALNTLLQSAGALICKLWIIKTEEMLVEKGLKHGWDGDFAYMAWVHDEIQVGCRTEEIAQVVIETAQEAMRWVGDHWNFRCLLDTEGKMGPNWAICH
As to B2, in experiment [2] (TADR implemented with T7 DNA polymerase), the targeted mutagenesis entry is on record as “no targeted mutagenesis was seen”. Besides, the “bimolecular association rate constant (kon)” value with primed DNA substrate is 3.6e+07 M⁻¹ s⁻¹.
